Measurements reported in paper PMC11684029, “Discovery of VU6024578/BI02982816: An mGlu1 Positive Allosteric Modulator with Efficacy in Preclinical Antipsychotic and Cognition Models” (Journal of Medicinal Chemistry, 2024).
In brackets after ≈: the same amount, converted by molar mass. Several values for one entry are separate records, joined by “and”; a condition that tells them apart may be missing. Equal entries are not always repeated. Entries after “also recorded” stand apart in the source; their conditions may differ. Where two headings read alike, the source gives them in different places.

Key:
hydrolytic stability = format: physicochemical
[1] = intrinsic clearance, predicted hepatic clearance; format: in vitro ADME, rat; settings: in vitro predicted hepatic clearance
Protocol: Human or rat hepatic microsomes (0.5 mg/mL) and 1 μM test compound were incubated in 100 mM potassium phosphate pH 7.4 buffer with 3 mM MgCl2 at 37 °C with constant shaking. After a 5 min preincubation, the reaction was initiated by addition of NADPH (1 mM). At selected time intervals (0, 3, 7, 15, 25, and 45 min), aliquots were taken and subsequently placed into a 96-well plate containing cold acetonitrile with internal standard (50 ng/mL carbamazepine). Plates were then centrifuged at 3000 rcf (4 °C) for 10 min, and the supernatant was transferred to a separate 96-well plate and diluted 1:1 with water for LC/MS/MS analysis. The in vitro half-life (T1/2, min, eq 1), intrinsic clearance (CLint, mL/min/kg, eq 2) and subsequent predicted hepatic clearance (CLhep, mL/min/kg, eq 3) was determined employing the following equations: [drawing 2] 1 where k represents the slope from linear regression analysis of the natural log percent remaining of test compound as a function of incubation time [drawing 3] 2
^ascale-up factors: of 20 (human) or 45 (rat) [drawing 4] 3 where Qh (hepatic blood flow, mL/min/kg) is 21 (human) or 70 (rat).

rat PO PBL study = format: in vivo; settings: 3 mg/kg PO
From the text: Thus, 19d was a stable chemical entity in vivo. […] Overall, the rat PK and CNS penetration was supportive of in vivo work and progression down the development flow-chart.

[2] = PK in parallel to rat locomotor battery; format: in vivo
Protocol: In order to enable our target validation work, we first profiled PAM 19d in a rat locomotor battery to ensure that pharmacodynamic efficacy was not mistaken for gross effects on locomotion.[20] […] PK was performed in parallel to establish a PK/PD relationship.[24]
Figure S2. 19d assessed in rat locomotor battery A: Exposure of 19d in the locomotor battery experiment. […]

4-strain ± S9 = assay: Ames test
rat mGlu2–5,7,8 = assay: mGlu subtype selectivity; format: cell-based; settings: inactive
Protocol: (§1) Over the course of the mGlu1 PAM program, 19d became an assay standard and was assayed multiple times, affording refined potency values.[20]

human mGlu2–5,7,8 = assay: mGlu subtype selectivity; format: cell-based
Protocol: as §1

[3] = rat IV plasma:brain level (PBL) PK; format: in vivo
rats = assay: MK-801 induced disruption of novel object recognition; format: in vivo; settings: rat, p.o.
Protocol: Based on our previous work with the mGlu1 PAM 4,[6]−[9],[14]−[19] we first evaluated the ability of 19d to reverse MK-801 disruptions of novel object recognition (NOR) in rats (Figure 6).
Figure 6 Rat MK-801 induced disruption of novel object recognition and reversal by VU6024578 (19d). MK-801 (0.5 mg/kg IP) induced a robust disruption of NOR, which was dose-dependently reversed by oral administration (10% tween 80) of 19d.
The animals are habituated to the novel object arenas for 1 day prior to testing. This is accomplished by placing the animal in the arena with no objects for 10 min and then placed back into the home cage. The arena is then cleaned with 70% ethanol in between animals. The day of the test the animals are habituated to the dosing room for 2 h. The animals were administered VU6024578 (1–10 mg/kg p.o.) or vehicle (10% Tween 80) and were placed back into their homecage for 60 min. The animals were then injected with MK-801 (0.075 mg/kg 1 mL/kg s.c.) and placed back in the homecage for 30 min. […] The activity of the animals are recorded and the time spent exploring each of the objects is scored by a blinded observer. Recognition index is determined by subtracting […] divided by total time spent exploring.

[4] = glutathione trapping of reactive intermediates; format: in vitro ADME
Protocol: (§2) Across species, 19d had acceptable fraction unbound in both plasma (fu (plasma): 0.03 (human), 0.041 (rat), 0.025 (cyno), 0.039 (dog) and 0.056 (mouse)) and brain (fu (brain): 0.034 (rat) and 0.081 (mouse)).
In Vitro Glutathione Conjugates of 19d
Figure S1. 19d was incubated in rat and human liver microsomes for 1 hr (with and without
NADPH) with 20 µM glutathione.
conjugates, most likely due to reactive intermediate formation from the 2-furanyl southern […]

[5] = solubility (kinetic, FaSSIF, FaSSGF); format: physicochemical
Protocol: as §1

[6] = predicted hepatic clearance; format: in vitro ADME, dog
From the text: as §2

SMILES: Cn1nc(-c2ccnn2C)cc1CNC(=O)c1cc(-c2ccco2)ccc1Cl [Compound 19d, 2-Chloro-N-((1,2′-dimethyl-1H,2’H-[3,3′-bipyrazol]-5-yl)methyl)-5-(furan-2-yl)benzamide]
- hydrolytic stability (hydrolytic stability; acidic, pH 2.2): hydrolytically stable
- hydrolytic stability (hydrolytic stability; neutral, pH 7.4): hydrolytically stable
- CLhep, rat [1]: 39 mL/min/kg and 39.3 mL/min/kg
- unbound brain concentration Br[unbound] (rat PO PBL study; at Tmax): 100 nM
- Kp (rat PO PBL study; brain, 15 min to 7 h): ~0.5
- Kp ([2]; brain, rat locomotor battery PK): ~0.75
- free brain concentration ([2]; rat, 10 mg/kg): 134 nM
- free brain concentration over in vitro EC50 ([2]; rat, 10 mg/kg): ~2.9 fold
- Ames test result (4-strain ± S9): negative
- activity against rat mGlu2–5,7,8 (rat mGlu2–5,7,8): > 30 µM
- activity against human mGlu2–5,7,8 (human mGlu2–5,7,8; inactive): > 30 µM
- activity on mGlu2–5,7,8, in words (human mGlu2–5,7,8; species not given): inactive
- Kp at 15 min ([3]; Sprague-Dawley, 0.25 mg/kg/compound, rat IV PBL, brain:plasma): 0.99
- Kp uu at 15 min ([3]; Sprague-Dawley, brain, 0.25 mg/kg/compound, rat IV PBL): 0.82
- half-life ([3]; plasma, iv, 1 mg/kg, rat PK PBL experiment): 3.6 h
- clearance ([3]; plasma, iv, 1 mg/kg, rat PK PBL experiment, read-out: CLp): 8.3 mL/min/kg
- MRT ([3]; plasma, iv, 1 mg/kg, rat PK PBL experiment, read-out: MRT): 3.5 h
- Vd ([3]; plasma, iv, 1 mg/kg, rat PK PBL experiment, read-out: Vss): 1.78 L/kg
- minimum effective dose (MED), MK-801 disrupted NOR (rats): 10 mg/kg
- glutathione conjugates ([4]; human liver microsomes with glutathione): multiple glutathione; also recorded: a number of minor glutathione conjugates with four involving the furanyl ring
- glutathione conjugates ([4]; rat liver microsomes with glutathione): multiple glutathione; also recorded: a number of minor glutathione conjugates with four involving the furanyl ring
- solubility ([5]; FaSSGF, fassgf or other biorelevant, read-out: FaSSGF solubility): 2.5 µM (≈ 0.99 µg/mL)
- solubility ([5]; FaSSIF, read-out: FaSSIF solubility): 2.5 µM (≈ 0.99 µg/mL)
- solubility kinetic ([5]; pH 7.4, aqueous buffer, kinetic from dmso stock): 4.1 µM (≈ 1.62 µg/mL)
- CLhep, dog [6]: 23 mL/min/kg
